Data on 10 compounds can be found in US10457707B2, “Substituted urea depsipeptide analogs as activators of the CLPP endopeptidase” (priority 2015, dated 2019).

Each structure is given as a SMILES string. Values after ≈ are worked out from the molar mass of the structure shown. Like-named read-outs stand apart in the source and are kept apart here. *1 amine or outer side, *2 acyl side, *3 side chain or, on linkers, in order; H or OH if unused. Where a SMILES comes first, the peptide text is derived from it. Bridges are numbered along the chain shown (N, C = ends). [ ]: non-standard residue; d: D form. The star is where a group is joined. ξ: configuration not given here. NH(1,3-benzodioxol-5-yl) = c1cc2c(cc1N*)OCO2; Phe(3,5-F2) = N[C@@H](Cc1cc(F)cc(F)c1)C(=O)O; NH(1-Me-indolin-5-yl) = CN1CCc2cc(N*)ccc21; Morpholine(3S-CO) = O=C(O)[C@@H]1COCCN1; NH(4-Cl-2-F-phenyl) = Fc1cc(Cl)ccc1N*; Pro(4R-Me) = C[C@H]1CN[C@H](C(=O)O)C1; Hyp = O=C(O)[C@@H]1C[C@@H](O)CN1; NH(4-Et-phenyl) = CCc1ccc(N*)cc1; NH(4-Me-phenyl) = Cc1ccc(N*)cc1; ξNMeThr = CNC(C(=O)O)[C@@H](C)O; aThr = C[C@H](O)[C@H](N)C(=O)O; Pip = O=C(O)[C@@H]1CCCCN1; CO = O=C([*:1])[*:2]

What all share (assay type): cell-based
Experiment [1] deals with Streptococcus pyogenes, ATCC 700294. Briefly: Minimal inhibitory concentration assay (microbroth dilution). Put shortly: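 Plates with two-fold compound dilution series in broth were incubated overnight, aerobically, at 37° C, following CLSI microdilution guidance.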
On the technique in general: Broth dilution looks for growth in wells or tubes with falling amounts of substance.

For experiment [2], the system named is Staphylococcus aureus, USA 300. Briefly: Minimal inhibitory concentration assay. The conditions noted are these: USA300, read-out: Minimal Inhibitory Concentrations S. aureus USA 300. Put shortly: (§1)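 Compound is serially diluted two-fold in the appropriate broth, and bacterial inoculum at about 10^5 cfu/mL is added so the highest final concentration is 200 μM. Plates stay overnight at 37 °C under aerobic conditions before growth is scored by eye.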

Experiment [3] deals with Staphylococcus aureus, USA 300 wherein ClpP is inactivated. Put plainly: Minimal inhibitory concentration assay. In short, it runs like this: as §1
Where [4] appears, read: Streptococcus pyogenes, ATCC700294, read-out: Minimal Inhibitory Concentrations S. pyogenes ATCC 700294.
The mark [5] stands for this setting: Streptococcus pyogenes, ATCC700294; read-out: Minimal Inhibitory Concentrations S. pyogenes ATCC 700294.

As to `C[C@@H]1C[C@H]2C(=O)O[C@@H](C)[C@H](NC(=O)[C@H](Cc3cc(F)cc(F)c3)NC(=O)Nc3ccc4c(c3)CCN4C)C(=O)N3CCC[C@H]3C(=O)N3CCCC[C@H]3C(=O)N[C@@H](C)C(=O)N2C1` [Compound 310, (S)-3-(3,5-difluorophenyl)-2-(3-(1-methylindolin-5-yl)ureido)-N-((2R,6S,8aS,14aS,20S,21S,23aS)-2,6,21-trimethyl-5,8,14,19,23-pentaoxooctadecahydro-1H,5H,14H,19H-pyrido[2,1-i]dipyrrolo[2,1-c:2′,1′-l][1]oxa[4,7,10,13]tetraazacyclo-hexadecin-20-yl)propanamide] ({NH(1-Me-indolin-5-yl)-CO}-[Phe(3,5-F2)][aThr]P[Pip]A[Pro(4R-Me)]; ester 2-C), the figures for the MIC in experiment [1] (setting [4]) and in experiment [2] were 0.156 µM (≈ 0.132 µg/mL) and 0.078 µM (≈ 0.0662 µg/mL), respectively. Further, the “Minimal Inhibitory Concentrations S. aureus USA 300 ΔClpP” value in experiment [3] was more than 20 µM.
The matching figures for `C[C@@H]1C[C@H]2C(=O)O[C@@H](C)[C@H](NC(=O)[C@H](Cc3cc(F)cc(F)c3)NC(=O)Nc3ccc4c(c3)CCN4C)C(=O)N3CCC[C@H]3C(=O)N(C)C([C@@H](C)O)C(=O)N[C@@H](C)C(=O)N2C1` (stereo partly drawn) [Compound 311, (S)-3-(3,5-difluorophenyl)-N-((2R,6S,9R,11aS,17S,18S,20aS)-9-((R)-1-hydroxyethyl)-2,6,10,18-tetramethyl-5,8,11,16,20-pentaoxohexadecahydro-1H,5H,16H-dipyrrolo[2,1-c:2′,1′-l][1]oxa[4,7,10,13]tetraazacyclohexadecin-17-yl)-2-(3-(1-methylindolin-5-yl)ureido)propanamide] ({NH(1-Me-indolin-5-yl)-CO}-[Phe(3,5-F2)][aThr]P[ξNMeThr]A[Pro(4R-Me)]; ester 2-C): 0.156 µM (≈ 0.133 µg/mL), 0.156 µM (≈ 0.133 µg/mL) and more than 20 µM.
The matching figures for `C[C@@H]1C[C@H]2C(=O)O[C@@H](C)[C@H](NC(=O)[C@H](Cc3cc(F)cc(F)c3)NC(=O)Nc3ccc4c(c3)CCN4C)C(=O)N3CCC[C@H]3C(=O)N3CCOC[C@H]3C(=O)N[C@@H](C)C(=O)N2C1` [Compound 312, (S)-3-(3,5-difluorophenyl)-2-(3-(1-methylindolin-5-yl)ureido)-N-((6aS,12S,13S,15aS,17R,21S,23aS)-13,17,21-trimethyl-6,11,15,20,23-pentaoxooctadecahydro-6H,11H,15H-[1,4]oxazino[3,4-i]dipyrrolo[2,1-c:2′,1′-l][1]oxa[4,7,10,13]tetraazacyclo-hexadecin-12-yl)propanamide] ({NH(1-Me-indolin-5-yl)-CO}-[Phe(3,5-F2)][aThr]P[Morpholine(3S-CO)]A[Pro(4R-Me)]; ester 2-C): 0.156 µM (≈ 0.133 µg/mL), 0.156 µM (≈ 0.133 µg/mL) and more than 20 µM.
For `C[C@@H]1C[C@H]2C(=O)O[C@@H](C)[C@H](NC(=O)[C@H](Cc3cc(F)cc(F)c3)NC(=O)Nc3ccc(Cl)cc3F)C(=O)N3CCC[C@H]3C(=O)N(C)C([C@@H](C)O)C(=O)N[C@@H](C)C(=O)N2C1` (stereo partly drawn) [Compound 313, (S)-2-(3-(4-chloro-2-fluorophenyl)ureido)-3-(3,5-difluorophenyl)-N-((2R,6S,9R,11aS,17S,18S,20aS)-9-((R)-1-hydroxyethyl)-2,6,10,18-tetramethyl-5,8,11,16,20-pentaoxohexadecahydro-1H,5H,16H-dipyrrolo[2,1-c:2′,1′-l][1]oxa[4,7,10,13]tetraazacyclohexadecin-17-yl)propanamide] ({NH(4-Cl-2-F-phenyl)-CO}-[Phe(3,5-F2)][aThr]P[ξNMeThr]A[Pro(4R-Me)]; ester 2-C), the MIC in experiment [1] (setting [5]) and in experiment [2] was less than 0.02 µM in each case. Further, the “Minimal Inhibitory Concentrations S. aureus USA 300 ΔClpP” value in experiment [3] is more than 20 µM.
As for `C[C@@H]1C[C@H]2C(=O)O[C@@H](C)[C@H](NC(=O)[C@H](Cc3cc(F)cc(F)c3)NC(=O)Nc3ccc(Cl)cc3F)C(=O)N3CCC[C@H]3C(=O)N3CCOC[C@H]3C(=O)N[C@@H](C)C(=O)N2C1` [Compound 314, (S)-2-(3-(4-chloro-2-fluorophenyl)ureido)-3-(3,5-difluorophenyl)-N-((6aS,12S,13S,15aS,17R,21S,23aS)-13,17,21-trimethyl-6,11,15,20,23-pentaoxooctadecahydro-6H,11H,15H-[1,4]oxazino[3,4-i]dipyrrolo[2,1-c:2′,1′-l][1]oxa[4,7,10,13]tetraazacyclo-hexadecin-12-yl)propanamide] ({NH(4-Cl-2-F-phenyl)-CO}-[Phe(3,5-F2)][aThr]P[Morpholine(3S-CO)]A[Pro(4R-Me)]; ester 2-C), the MIC in experiment [1] (setting [5]) and in experiment [2] was less than 0.02 µM throughout. Moreover, the “Minimal Inhibitory Concentrations S. aureus USA 300 ΔClpP” value in experiment [3] was more than 20 µM.
`C[C@@H]1C[C@H]2C(=O)O[C@@H](C)[C@H](NC(=O)[C@H](Cc3cc(F)cc(F)c3)NC(=O)Nc3ccc4c(c3)CCN4C)C(=O)N3C[C@H](O)C[C@H]3C(=O)N3CCOC[C@H]3C(=O)N[C@@H](C)C(=O)N2C1` [Compound 315, (S)-3-(3,5-difluorophenyl)-N-((6aS,8R,12S,13S,15aS,17R,21S,23aS)-8-hydroxy-13,17,21-trimethyl-6,11,15,20,23-pentaoxooctadecahydro-6H,11H,15H-[1,4]oxazino[3,4-i]dipyrrolo[2,1-c:2′,1′-l][1]oxa[4,7,10,13]tetraazacyclohexadecin-12-yl)-2-(3-(1-methylindolin-5-yl)ureido)propanamide] ({NH(1-Me-indolin-5-yl)-CO}-[Phe(3,5-F2)][aThr][Hyp][Morpholine(3S-CO)]A[Pro(4R-Me)]; ester 2-C): the MIC in experiment [1] (setting [4]) came to 0.625 µM (≈ 0.542 µg/mL); in experiment [2], 10 µM (≈ 8.67 µg/mL). In experiment [3], the “Minimal Inhibitory Concentrations S. aureus USA 300 ΔClpP” value was more than 20 µM.
Consider `C[C@@H]1C[C@H]2C(=O)O[C@@H](C)[C@H](NC(=O)[C@H](Cc3cc(F)cc(F)c3)NC(=O)Nc3ccc(Cl)cc3F)C(=O)N3C[C@H](O)C[C@H]3C(=O)N3CCOC[C@H]3C(=O)N[C@@H](C)C(=O)N2C1` [Compound 316, (S)-2-(3-(4-chloro-2-fluorophenyl)ureido)-3-(3,5-difluorophenyl)-N-((6aS,8R,12S,13S,15aS,17R,21S,23aS)-8-hydroxy-13,17,21-trimethyl-6,11,15,20,23-pentaoxooctadecahydro-6H,11H,15H-[1,4]oxazino[3,4-i]dipyrrolo[2,1-c:2′,1′-l][1]oxa[4,7,10,13]tetraazacyclo-hexadecin-12-yl)propanamide] ({NH(4-Cl-2-F-phenyl)-CO}-[Phe(3,5-F2)][aThr][Hyp][Morpholine(3S-CO)]A[Pro(4R-Me)]; ester 2-C), for which the MIC in experiment [1] (setting [5]) was less than 0.02 µM; in experiment [2], 0.156 µM (≈ 0.135 µg/mL). Also, the “Minimal Inhibitory Concentrations S. aureus USA 300 ΔClpP” value in experiment [3] is more than 20 µM.
Consider `Cc1ccc(NC(=O)N[C@@H](Cc2cc(F)cc(F)c2)C(=O)N[C@H]2COC(=O)[C@@H]3C[C@@H](C)CN3C(=O)[C@H](C)NC(=O)[C@@H]3COCCN3C(=O)[C@@H]3C[C@@H](O)CN3C2=O)cc1` [Compound 317, (S)-3-(3,5-difluorophenyl)-N-((6aS,8R,12S,15aS,17R,21S,23aS)-8-hydroxy-17,21-dimethyl-6,11,15,20,23-pentaoxooctadecahydro-6H,11H,15H-[1,4]oxazino[3,4-i]dipyrrolo[2,1-c:2′,1′-l][1]oxa[4,7,10,13]tetraazacyclohexadecin-12-yl)-2-(3-(p-tolyl)ureido)propanamide] ({NH(4-Me-phenyl)-CO}-[Phe(3,5-F2)]S[Hyp][Morpholine(3S-CO)]A[Pro(4R-Me)]; ester 2-C), for which the MIC came to 0.156 µM (≈ 0.127 µg/mL) in experiment [1] (setting [4]) and 12.5 µM (≈ 10.1 µg/mL) in experiment [2]. For the same compound, the “Minimal Inhibitory Concentrations S. aureus USA 300 ΔClpP” value in experiment [3] amounted to 12.5 µM.
For `C[C@@H]1C[C@H]2C(=O)O[C@@H](C)[C@H](NC(=O)[C@H](Cc3cc(F)cc(F)c3)NC(=O)Nc3ccc4c(c3)OCO4)C(=O)N3C[C@H](O)C[C@H]3C(=O)N3CCOC[C@H]3C(=O)N[C@@H](C)C(=O)N2C1` [Compound 319, (S)-2-(3-(benzo[d][1,3]dioxol-5-yl)ureido)-3-(3,5-difluorophenyl)-N-((6aS,8R,12S,13S,15aS,17R,21S,23aS)-8-hydroxy-13,17,21-trimethyl-6,11,15,20,23-pentaoxooctadecahydro-6H,11H,15H-[1,4]oxazino[3,4-i]dipyrrolo[2,1-c:2′,1′-l][1]oxa[4,7,10,13]tetraazacyclo-hexadecin-12-yl)propanamide] ({NH(1,3-benzodioxol-5-yl)-CO}-[Phe(3,5-F2)][aThr][Hyp][Morpholine(3S-CO)]A[Pro(4R-Me)]; ester 2-C), the MIC in experiment [1] (setting [5]) was determined as 0.313 µM (≈ 0.268 µg/mL); in experiment [2] it was 25 µM (≈ 21.4 µg/mL). Moreover, the “Minimal Inhibitory Concentrations S. aureus USA 300 ΔClpP” value in experiment [3] was found to be 25 µM.
As for `CCc1ccc(NC(=O)N[C@@H](Cc2cc(F)cc(F)c2)C(=O)N[C@@H]2C(=O)N3C[C@H](O)C[C@H]3C(=O)N3CCOC[C@H]3C(=O)N[C@@H](C)C(=O)N3C[C@H](C)C[C@H]3C(=O)O[C@H]2C)cc1` [Compound 320, (S)-3-(3,5-difluorophenyl)-2-(3-(4-ethylphenyl)ureido)-N-((6aS,8R,12S,13S,15aS,17R,21S,23aS)-8-hydroxy-13,17,21-trimethyl-6,11,15,20,23-pentaoxooctadecahydro-6H,11H,15H-[1,4]oxazino[3,4-i]dipyrrolo[2,1-c:2′,1′-l][1]oxa[4,7,10,13]-tetraazacyclohexadecin-12-yl)propanamide] ({NH(4-Et-phenyl)-CO}-[Phe(3,5-F2)][aThr][Hyp][Morpholine(3S-CO)]A[Pro(4R-Me)]; ester 2-C), the MIC in experiment [1] (setting [5]) came to 0.039 µM (≈ 0.0328 µg/mL); in experiment [2] it was 0.781 µM (≈ 0.656 µg/mL). For the same compound, the “Minimal Inhibitory Concentrations S. aureus USA 300 ΔClpP” value in experiment [3] worked out at 0.7812 µM.
